From patent publication US8618153B2, “Hepatitis C virus inhibitors” (Bristol-Myers Squibb Company, priority 2009, dated 2013)
Where two headings read alike, the source gives them in different places.

Test system: HCV 1b genotype
Experiment: HCV Replicon assay (HCV-neo replicon cells), 1b genotype
Assay type: cell-based
Conditions: Hepatitis C virus, HCV 1b genotype replicon, read-out: 1b EC50 (in μM or range)
Experimental: An HCV Replicon assay was utilized in the present disclosure, and was prepared, conducted and validated as described in commonly owned PCT/US2006/022197 and in O'Boyle et al., Antimicrob. Agents Chemother., 49(4):1346-1353 (April 2005). Assay methods incorporating luciferase reporters have also been used as described (Apath.com).
HCV-neo replicon cells and replicon cells containing mutations in the NS5A region were used to test the currently described family of compounds. The compounds were determined to have more than 10-fold less inhibitory activity on cells containing mutations than wild-type cells. Thus, the compounds of the present disclosure can be effective in inhibiting the function of the HCV NS5A protein and are understood to be as effective in combinations as previously described in application PCT/US2006/022197 and commonly owned WO 04/014852. Further, the compounds of the present disclosure can be effective against the HCV 1b genotype. It should also be understood that the compounds of the present disclosure can inhibit multiple genotypes of HCV. […] In one embodiment compounds of the present disclosure are inhibitory versus 1a, 1b, 2a, 2b, 3a, 4a, and 5a genotypes. […] The compounds of the present disclosure may inhibit HCV by mechanisms in addition to or other than NS5A inhibition. In one embodiment the compounds of the present disclosure inhibit HCV replicon and in another embodiment the compounds of the present disclosure inhibit NS5A.

Row | Structure (SMILES) | EC50 (value given as range class) | EC50 (numeric value)
1 | COC(=O)N[C@H](C(=O)N1CCC[C@H]1c1ncc(C#Cc2ccc(-c3ccc(-c4cnc([C@@H]5CCCN5C(=O)[C@@H](NC(=O)OC)C(C)C)[nH]4)cc3)cc2)[nH]1)C(C)C [Example 33, Methyl ((1S)-1-(((2S)-2-(4-(4′-((2-((2S)-1-((2S)-2-((methoxycarbonyl)amino)-3-methylbutanoyl)-2-pyrrolidinyl)-1H-imidazol-4-yl)ethynyl)-4-biphenylyl)-1H-imidazol-2-yl)-1-pyrrolidinyl)carbonyl)-2-methylpropyl)carbamate] | < 0.001 µM | 
2 | COC(=O)N[C@H](C(=O)N1[C@@H]2C[C@@H]2C[C@H]1c1ncc(C#CC#Cc2cnc([C@@H]3C[C@H]4C[C@H]4N3C(=O)[C@@H](NC(=O)OC)C3CCOCC3)[nH]2)[nH]1)C1CCOCC1 [Example 34, Dimethyl (1,3-butadiyne-1,4-diylbis(1H-imidazole-4,2-diyl(1R,3S,5R)-2-azabicyclo[3.1.0]hexane-3,2-diyl((1S)-2-oxo-1-(tetrahydro-2H-pyran-4-yl)-2,1-ethanediyl)))biscarbamate] | 0.001 to 0.01 µM | 
3 | CCN(CC)[C@@H](C(=O)N1CCC[C@H]1c1nc(/C=C/c2ccc(/C=C/c3cnc([C@@H]4CCCN4C(=O)[C@@H](c4ccccc4)N(CC)CC)[nH]3)cc2)c[nH]1)c1ccccc1 [Example 35, (1R)-2-((2S)-2-(4-((E)-2-(4-((E)-2-(2-((2S)-1-((2R)-2-(diethylamino)-2-phenylacetyl)-2-pyrrolidinyl)-1H-imidazol-5-yl)vinyl)phenyl)vinyl)-1H-imidazol-2-yl)-1-pyrrolidinyl)-N,N-diethyl-2-oxo-1-phenylethanamine] |  | 0.00014 µM
4 | COC(=O)N[C@@H](C(=O)N1CCC[C@H]1c1nc(/C=C/c2ccc(/C=C/c3cnc([C@@H]4CCCN4C(=O)[C@H](NC(=O)OC)c4ccccc4)[nH]3)cc2)c[nH]1)c1ccccc1 [Example 36, dimethyl (1,4-phenylenebis((E)-2,1-ethenediyl-1H-imidazole-4,2-diyl(2S)-2,1-pyrrolidinediyl((1R)-2-oxo-1-phenyl-2,1-ethanediyl)))biscarbamate] | < 0.001 µM | 
5 | COC(=O)N[C@@H](C)C(=O)N1CCC[C@H]1c1nc(/C=C/c2ccc(/C=C/c3cnc([C@@H]4CCCN4C(=O)[C@H](C)NC(=O)OC)[nH]3)cc2)c[nH]1 [Example 37, methyl ((1S)-2-((2S)-2-(4-((E)-2-(4-((E)-2-(2-((2S)-1-(N-(methoxycarbonyl)-L-alanyl)-2-pyrrolidinyl)-1H-imidazol-4-yl)vinyl)phenyl)vinyl)-1H-imidazol-2-yl)-1-pyrrolidinyl)-1-methyl-2-oxoethyl)carbamate] | < 0.001 µM | 
6 | COC(=O)N[C@H](C(=O)N1CCC[C@H]1c1nc(/C=C/c2ccc(/C=C/c3cnc([C@@H]4CCCN4C(=O)[C@@H](NC(=O)OC)C(C)C)[nH]3)cc2)c[nH]1)C(C)C [Example 38, methyl ((1S)-1-(((2S)-2-(4-((E)-2-(4-((E)-2-(2-((2S)-1-((2S)-2-((methoxycarbonyl)amino)-3-methylbutanoyl)-2-pyrrolidinyl)-1H-imidazol-4-yl)vinyl)phenyl)vinyl)-1H-imidazol-2-yl)-1-pyrrolidinyl)carbonyl)-2-methylpropyl)carbamate] | < 0.001 µM | 
7 | COC(=O)N[C@H](C(=O)N1CCC[C@H]1c1nc(/C=C/c2ccc(/C=C/c3cnc([C@@H]4CCCN4C(=O)[C@@H](NC(=O)OC)[C@@H](C)OC)[nH]3)cc2)c[nH]1)[C@@H](C)OC [Example 39, methyl ((1S,2R)-2-methoxy-1-(((2S)-2-(4-((E)-2-(4-((E)-2-(2-((2S)-1-(N-(methoxycarbonyl)-O-methyl-L-threonyl)-2-pyrrolidinyl)-1H-imidazol-4-yl)vinyl)phenyl)vinyl)-1H-imidazol-2-yl)-1-pyrrolidinyl)carbonyl)propyl)carbamate] | < 0.001 µM | 
8 | CCN(CC)[C@@H](C(=O)N1CCC[C@H]1c1nc(CCc2ccc(CCc3cnc([C@@H]4CCCN4C(=O)[C@@H](c4ccccc4)N(CC)CC)[nH]3)cc2)c[nH]1)c1ccccc1 [Example 40, (1R)-2-((2S)-2-(4-(2-(4-(2-(2-((2S)-1-((2R)-2-(diethylamino)-2-phenylacetyl)-2-pyrrolidinyl)-1H-imidazol-5-yl)ethyl)phenyl)ethyl)-1H-imidazol-2-yl)-1-pyrrolidinyl)-N,N-diethyl-2-oxo-1-phenylethanamine] | < 0.001 µM | 
9 | COC(=O)N[C@@H](C(=O)N1CCC[C@H]1c1nc(CCc2ccc(CCc3cnc([C@@H]4CCCN4C(=O)[C@H](NC(=O)OC)c4ccccc4)[nH]3)cc2)c[nH]1)c1ccccc1 [Example 41, dimethyl (1,4-phenylenebis(2,1-ethanediyl-1H-imidazole-4,2-diyl(2S)-2,1-pyrrolidinediyl((1R)-2-oxo-1-phenyl-2,1-ethanediyl)))biscarbamate] | < 0.001 µM | 
10 | COC(=O)N[C@@H](C)C(=O)N1CCC[C@H]1c1nc(CCc2ccc(CCc3cnc([C@@H]4CCCN4C(=O)[C@H](C)NC(=O)OC)[nH]3)cc2)c[nH]1 [Example 42, methyl ((1S)-2-((2S)-2-(4-(2-(4-(2-(2-((2S)-1-(N-(methoxycarbonyl)-L-alanyl)-2-pyrrolidinyl)-1H-imidazol-4-yl)ethyl)phenyl)ethyl)-1H-imidazol-2-yl)-1-pyrrolidinyl)-1-methyl-2-oxoethyl)carbamate] |  | 0.274 µM
11 | COC(=O)N[C@H](C(=O)N1CCC[C@H]1c1nc(CCc2ccc(CCc3cnc([C@@H]4CCCN4C(=O)[C@@H](NC(=O)OC)C(C)C)[nH]3)cc2)c[nH]1)C(C)C [Example 43, methyl ((1S)-1-(((2S)-2-(4-(2-(4-(2-(2-((2S)-1-((2S)-2-((methoxycarbonyl)amino)-3-methylbutanoyl)-2-pyrrolidinyl)-1H-imidazol-4-yl)ethyl)phenyl)ethyl)-1H-imidazol-2-yl)-1-pyrrolidinyl)carbonyl)-2-methylpropyl)carbamate] | 0.001 to 0.01 µM | 
12 | COC(=O)N[C@H](C(=O)N1CCC[C@H]1c1nc(CCc2ccc(CCc3cnc([C@@H]4CCCN4C(=O)[C@@H](NC(=O)OC)[C@@H](C)OC)[nH]3)cc2)c[nH]1)[C@@H](C)OC [Example 44, methyl ((1S,2R)-2-methoxy-1-(((2S)-2-(4-(2-(4-(2-(2-((2S)-1-(N-(methoxycarbonyl)-O-methyl-L-threonyl)-2-pyrrolidinyl)-1H-imidazol-4-yl)ethyl)phenyl)ethyl)-1H-imidazol-2-yl)-1-pyrrolidinyl)carbonyl)propyl)carbamate] | 0.01 to 10 µM | 
13 | COC(=O)N[C@@H](C(=O)N1CCC[C@H]1c1ncc(C#Cc2ccc(-c3cnc([C@@H]4CCCN4C(=O)[C@H](NC(=O)OC)c4ccccc4)[nH]3)cc2)[nH]1)c1ccccc1 [Example M1, Methyl ((1R)-2-((2S)-2-(4-(4-((2-((2S)-1-((2R)-2-((methoxycarbonyl)amino)-2-phenylacetyl)-2-pyrrolidinyl)-1H-imidazol-4-yl)ethynyl)phenyl)-1H-imidazol-2-yl)-1-pyrrolidinyl)-2-oxo-1-phenylethyl)carbamate] | < 0.001 µM | 
14 | COC(=O)N[C@@H](C(=O)N1CCC[C@H]1c1ncc(CCc2ccc(-c3cnc([C@@H]4CCCN4C(=O)[C@H](NC(=O)OC)c4ccccc4)[nH]3)cc2)[nH]1)c1ccccc1 [Example M2, Methyl ((1R)-2-((2S)-2-(4-(4-(2-(2-((2S)-1-((2R)-2-((methoxycarbonyl)amino)-2-phenylacetyl)-2-pyrrolidinyl)-1H-imidazol-4-yl)ethyl)phenyl)-1H-imidazol-2-yl)-1-pyrrolidinyl)-2-oxo-1-phenylethyl)carbamate] | < 0.001 µM | 
15 | CN(C)[C@@H](C(=O)N1CCC[C@H]1c1ncc(CCc2ccc(-c3cnc([C@@H]4CCCN4C(=O)[C@@H](c4ccccc4)N(C)C)[nH]3)cc2)[nH]1)c1ccccc1 [Example M3, [(1R)-2-((2S)-2-(4-(4-(2-(2-((2S)-1-((2R)-2-(Dimethylamino)-2-phenylacetyl)-2-pyrrolidinyl)-1H-imidazol-4-yl)ethyl)phenyl)-1H-imidazol-2-yl)-1-pyrrolidinyl)-N,N-dimethyl-2-oxo-1-phenylethanamine]] | 0.001 to 0.01 µM | 
16 | COC(=O)N[C@H](C(=O)N1CCC[C@H]1c1ncc(C#Cc2ccc(C#Cc3cnc([C@@H]4CCCN4C(=O)[C@@H](NC(=O)OC)C(C)C)[nH]3)cc2)[nH]1)C(C)C [Example M4, Methyl((1S)-1-(((2S)-2-(4-((4-((2-((2S)-1-((2S)-2-((methoxycarbonyl)amino)-3-methylbutanoyl)-2-pyrrolidinyl)-1H-imidazol-4-yl)ethynyl)phenyl)ethynyl)-1H-imidazol-2-yl)-1-pyrrolidinyl)carbonyl)-2-methylpropyl)carbamate] | < 0.001 µM | 
17 | COC(=O)N[C@H](C(=O)N1CCC[C@H]1c1nc(C#Cc2ccc(C#Cc3c[nH]c([C@@H]4CCCN4C(=O)[C@@H](NC(=O)OC)[C@@H](C)OC)n3)cc2)c[nH]1)[C@@H](C)OC [Example M5, Methyl ((1S,2R)-2-methoxy-1-(((2S)-2-(4-((4-((2-((2S)-1-(N-(methoxycarbonyl)-O-methyl-L-threonyl)-2-pyrrolidinyl)-1H-imidazol-4-yl)ethynyl)phenyl)ethynyl)-1H-imidazol-2-yl)-1-pyrrolidinyl)carbonyl)propyl)carbamate] | < 0.001 µM | 
